“Also recorded” adds a separate entry of the source.
Tests used:
Format in all cases: in vivo, rat
Lewis rats [1] = test: Intraperitoneal glucose tolerance test (IPGTT), compounds given i.v.; conditions: for area under the curve from glucose tolerance tests: each series a separate experiment; for AUC Blood Glucose IPGTT: 2 mg/kg (2.0 μg/gbw) i.v.; for blood glucose levels around sixty minutes following glucose challenge: i.v. injection at 2 mg/kg body weight
Description: (§1) All animal studies were reviewed and approved by the Institutional Animal Care and Use Committee (IACUC) at Columbia University's Medical School. All experiments were performed in accordance with the IACUC approved procedures. Normal male Lewis rats (100-400 grams) were obtained from Taconic (Taconic Inc., Germantown, N.Y.) and were housed under conditions of controlled humidity (55±5%), temperature (23±1° C.), and lighting (light on: 06.00-18.00 hours) with free access to standard laboratory rat chow and water. Rats were handled daily to minimize nonspecific stress for more than 7 days before the experiments began. In most experiments, it was necessary to measure blood glucose in fasting animals. For these groups, food was removed at the beginning of the light cycle, 6 hours before glucose levels were measured. Diabetes mellitus was induced by intraperitoneal injection of streptozotocin (Sigma Chemical Co., St. Louis, Mo.) (25 to 50 mg/kg) to animals (100 to 150 grams) that had been fasted 4 hours to enhance the effectiveness of STZ treatment.
The STZ solution was prepared fresh by dissolving it in 0.1 M citrate buffer (pH 5.5) and terminally sterile filtered. Control Lewis age and weight matched rats received a 0.5 ml/kg citrate vehicle alone via intraperitoneal injection. Sixty minutes prior to intraperitoneal glucose tolerance testing (IPGTT), anesthesia of male Lewis rats was induced with isoflurane (3-4% in oxygen) and maintained with 1-2% isoflurane in oxygen. Anaesthetized rats were administered TBZ and other indicated compounds at the indicated dose by intravenous (i.v.) injection using the penile vein. TBZ was dissolved in neat sterile dimethylsulfoxide (DMSO) and diluted (always more than 10 fold) in sterile saline. Rats received injections of vehicle alone (10% DMSO in saline) or reserpine (in saline). Animals recovered fully before receiving IPGTT.
(§2) Blood samples were collected from a superficial blood vessel in the tails of the rats following 6 hours of fasting between 12:00 noon and 2:00 p.m. The fasting blood glucose (BG) levels of the rats were measured using an Accu-Check blood glucose monitoring system (Roche Diagnostics, Sommerville, N.J.). Intraperitoneal glucose tolerance tests (IPGTT) were performed in 6 hour fasting un-anaesthetized animals. Briefly, after baseline BG measurements, animals received an intraperitoneal (i.p.) injection of 1 gram glucose/kilogram body weight. To minimize stress during the procedure, rats were handled by the same operator during acclimatization and later during weighing and IPGTT. Blood samples (approximately 30 μl) were collected at baseline and then again 15, 30, 60, 90, and 120 minutes following i.p. glucose administration. BG concentrations were measured immediately on these samples and the remainder processed.
(§3) Plasma was immediately separated by centrifugation at 3000×g for 15 minutes and then stored at −20° C. until analysis. Insulin and glucagon concentration measurements in rat plasma were performed by ELISA as per the manufacturer's instructions using kits from Linco Research Inc. (St. Charles, Mo.) and Alpco Diagnostics (Salem, N.H.), respectively. To validate the test, saline injections were performed by the same method. […] The area under the IPGTT glucose concentration×time curve (AUCIPGTT) was calculated by the trapezoidal rule. The area under the insulin or glucagon concentration×time curve (AUC INS or AUC GCG) was calculated in a similar manner.
Anaesthetized rats were administered TBZ, THB, butamol, reserpine, emetine, or HG-6 at a dose of approximately 2-3 mg/kg body weight by intravenous (i.v.) injection using the penile vein. TBZ, THB, butamol, reserpine, emetine, and HG-6 were each separately dissolved in neat sterile dimethylsulfoxide (DMSO) and diluted (always more than 10 fold) in sterile saline. Rats received injections of vehicle alone (10% DMSO in saline) or reserpine (in saline). Animals recovered fully before receiving IPGTT. […]

Lewis rats [2] = test: IPGTT of analogs HG-1 to HG-11, compounds given orally (FIG. 15); conditions: 2 mg/kg orally; for hypoglycemic activity in IPGTT compared with TBZ / HG-3: FIG. 15
Description: FIG. 15 is a bar graph showing the results of testing various analogs HG-1 to HG-11 in IPGTT glucose tolerance tests in rats. Results for TBZ, emetine, and olanzapine are also shown. Lewis rats fasted for 6 hours were administered the compounds orally (30 min, 2 mg/kg) followed by intraperitoneal glucose injection (0 min, […]), and plasma glucose levels were monitored for 120 mins. Results are presented as AUC percentage of the vehicle. Error bars indicate SEM (n=5).
Racemic HG-2 and its diastereoisomer HG-1 were evaluated for their ability to improve glucose tolerance by performing intraperitoneal glucose tolerance tests (IPGTT) in rats. IPGTT testing is described above. See also Murthy, R., et al., Eur. J. Nucl. Med. Mol. Imaging, 2008, 35(4), 790-797.

[3] = system: dopamine content of brain and pancreas tissue; test: Dopamine measurements in brain and pancreas extracts (ELISA)
Description: Anaesthetized rats received an intravenous injection of TBZ and were sacrificed one hour later. Euthanasia was performed by exsanguination of the anesthetized animal. Brain and pancreas were harvested as quickly as possible and frozen at −80° C. until use. Frozen tissue was pulverized in a liquid nitrogen cooled mortar and extracted in 0.01 N HCl. The tissue extract was centrifuged at 10,000×g at 4° C. to remove debris and the total protein was estimated by reading the absorbance at 280 nm. The concentration of dopamine in the extract was estimated using an ELISA kit from Rocky Mountain Diagnostics (Colorado Springs, Colo.) per the manufacturer's instructions and normalized to the extract protein concentration.

Lewis rats [4] = test: Plasma insulin and glucagon during IPGTT (ELISA)
Description: as §2, §3

diabetic Lewis rats = test: IPGTT in streptozotocin-induced diabetic Lewis rats
Description: as §1, with “In most experiments, it was necessary to measure blood glucose in fasting animals.” left out, “Diabetes mellitus was induced by intraperitoneal injection of streptozotocin (Sigma Chemical Co., St. Louis, Mo.) (25 to 50 mg/kg) to animals (100 to 150 grams) that had been fasted 4 hours to enhance the effectiveness of STZ treatment.” left out
Blood samples were collected from a superficial blood vessel in the tails of the rats following 6 hours of fasting between 12:00 noon and 2:00 p.m. The fasting blood glucose (BG) levels of the rats were measured using an Accu-Check blood glucose monitoring system (Roche Diagnostics, Sommerville, N.J.). […] BG concentrations were measured immediately on these samples and the remainder processed.
Plasma was immediately separated by centrifugation at 3000×g for 15 minutes and then stored at −20° C. until analysis. […] The area under the IPGTT glucose concentration×time curve (AUCIPGTT) was calculated by the trapezoidal rule. […]

[5] = single dose 2-3 mg/kg body weight i.v., FIG. 12
[6] = 2 mg/kg body weight i.v., Lewis rats 9-11 weeks old, vs vehicle (DMSO)

## COc1cc2c(cc1OC)C1CC(N)C(CC(C)C)CN1CC2 (stereo not shown) [HG-6, 3-isobutyl-9,10-dimethoxy-2,3,4,6,7,11b-hexahydro-1H-pyrido[2,1-a]isoquinolin-2-amine]
Lewis rats [1]; [5]
  blood glucose excursion during IPGTT: consistently reduced the blood glucose excursion
  area under the curve from glucose tolerance tests: consistently suppressed the area under the curve; also recorded: depress the area under the curve

## COc1ccc(C2CC(OCC(C)C)=CC(=O)O2)cc1OC (stereo not shown) [HG-7]
Lewis rats [2]
  hypoglycemic activity in IPGTT compared with TBZ / HG-3: loss of the improved activity

## COC(=O)[C@H]1[C@H]2C[C@@H]3c4[nH]c5cc(OC)ccc5c4CCN3C[C@H]2C[C@@H](OC(=O)c2cc(OC)c(OC)c(OC)c2)[C@@H]1OC [reserpine]
Lewis rats [1]
  AUC Blood Glucose IPGTT: smaller area under the curve
  blood glucose levels around sixty minutes following glucose challenge: returned to control or near normal levels
Lewis rats [1]; [6]
  blood glucose excursion during IPGTT: reduce the blood glucose excursion
Lewis rats [1]; reserpine single concentration 25 μg/gbm, data not shown
  blood glucose and AUC IPGTT relative to untreated controls: persistent hyperglycemia and larger AUC IPGTT

## COc1ccc(C2CC(O)C(CC(C)C)CN2)cc1OC (stereo not shown) [HG-2]
Lewis rats [2]
  hypoglycemic activity in IPGTT compared with TBZ / HG-3: less potent than TBZ

## COc1cc2c(cc1OC)C1CC(OCC(C)C)=CC(=O)N1CC2 (stereo not shown) [HG-8]
Lewis rats [2]
  hypoglycemic activity in IPGTT compared with TBZ / HG-3: active but less potent

## CC[C@H]1CN2CCc3cc(OC)c(OC)cc3[C@@H]2C[C@@H]1C[C@H]1NCCc2cc(OC)c(OC)cc21 [emetine]
Lewis rats [1]
  AUC Blood Glucose IPGTT: smaller area under the curve; also recorded: lower than that for vehicle and butamol treated animals
  blood glucose levels around sixty minutes following glucose challenge: returned to control or near normal levels
Lewis rats [1]; [6]
  blood glucose excursion during IPGTT: reduce the blood glucose excursion
Lewis rats [1]; [5]
  blood glucose excursion during IPGTT: consistently reduced the blood glucose excursion
  area under the curve from glucose tolerance tests: consistently suppressed the area under the curve
Lewis rats [1]; single dose 2-3 mg/kg body weight i.v., FIG. 12, listed as emitine
  area under the curve from glucose tolerance tests: depress the area under the curve

## COc1ccc2c(c1OC)CN1CCc3cc4c(cc3C1C2)OCO4 (stereo not shown) [THB, tetrahydroberberine]
Lewis rats [1]
  AUC Blood Glucose IPGTT: smaller area under the curve; also recorded: lower than that for vehicle and butamol treated animals
  blood glucose levels around sixty minutes following glucose challenge: returned to control or near normal levels
Lewis rats [1]; [6]
  blood glucose excursion during IPGTT: reduce the blood glucose excursion

## COc1ccc([C@@H]2C[C@H](O)[C@@H](CC(C)C)CN2)cc1OC [HG-1]
Lewis rats [2]
  hypoglycemic activity in IPGTT compared with TBZ / HG-3: less potent than TBZ

## COC1=CC(=O)N2CCc3cc(OC)c(OC)cc3C2C1 (stereo not shown) [HG-10]
Lewis rats [2]
  hypoglycemic activity in IPGTT compared with TBZ / HG-3: active but less potent

## COc1cc2c(cc1OC)[C@@H]1CC(=O)[C@@H](CC(C)C)CN1CC2 [TBZ, tetrabenazine]
[3]; TBZ 1.6 μg/gm body weight i.v., one hour later, normalized to total protein
  dopamine content of brain and pancreas tissue: reduces the dopamine content of brain and pancreas tissue
[3]; one hour after injection of 10 μg/gm body weight of tetrabenazine
  dopamine content of pancreas and brain: significantly depleted the dopamine content of pancreas and brain
Lewis rats [2]; 30 min before i.p. glucose, relative to vehicle, n=5
  decrease of the AUC IPGTT (area under the blood glucose concentration-time curve): 26%
Lewis rats [1]
  AUC Blood Glucose IPGTT: smaller area under the curve; also recorded: lower than that for vehicle and butamol treated animals
  blood glucose levels around sixty minutes following glucose challenge: returned to control or near normal levels
Lewis rats [1]; [6]
  blood glucose excursion during IPGTT: reduced the blood glucose excursion
Lewis rats [1]; 2 mg/kg body weight i.v., Lewis rats 9-11 weeks old, vs vehicle (DMSO), listed as Tetrabenazine
  blood glucose excursion during IPGTT: reduced the blood glucose excursion
Lewis rats [1]; Lewis rats 9-11 week old, TBZ 1.6 μg/gm body weight i.v., vs vehicle
  blood glucose excursion during IPGTT: reduces the blood glucose excursion
Lewis rats [1]; Lewis rats 9-11 week old, TBZ 1.6 μg/gm body weight i.v., vs vehicle, listed as tetrabenazine
  blood glucose excursion during IPGTT: significant change in the size and shape of the glucose disposition curve
Lewis rats [1]; TBZ 1.6 μg/gbw
  reduction of the glucose excursion (areas under the curve during IPGTT): 40-50%
Lewis rats [1]; TBZ 1.6 μg/gm, series of experiments n=4, p<0.05
  AUC IPGTT of controls compared with TBZ treated animals: significantly higher
Lewis rats [1]; after TBZ administration, before glucose challenge, data not shown
  baseline fasting glucose concentration: no reproducible differences were observed
Lewis rats [1]; [5]
  blood glucose excursion during IPGTT: consistently reduced the blood glucose excursion
  area under the curve from glucose tolerance tests: consistently suppressed the area under the curve; also recorded: depress the area under the curve
Lewis rats [1]; varying doses of TBZ, normalized to each animal's untreated baseline IPGTT
  dose dependence of AUC IPGTT: complex dose response effect; also recorded: reduces the blood glucose excursion in a dose dependent manner
Lewis rats [4]; TBZ 1.6 μg/gm, Lewis rats 9-11 week old, during IPGTT
  glucose-stimulated insulin and glucagon secretion in vivo: alters glucose-stimulated insulin and glucagon secretion in vivo
Lewis rats [4]; following TBZ and glucose challenge
  plasma insulin levels relative to vehicle treated controls: greater
Lewis rats [4]; following i.v. TBZ administration and glucose challenge
  plasma glucagon levels relative to controls: generally lower
Lewis rats [4]; four out of five experiments
  AUC INS with TBZ treatment relative to AUC INS of control animals: greater than two fold
Lewis rats [4]; prior to glucose challenge
  baseline plasma concentrations of glucagon: sometimes lower than controls, although these differences did not reach statistical significance
Lewis rats [4]; three of five experiments
  AUC GCG, less than AUC GCG of control animals: 75%-85%
Diabetic Lewis rats; STZ-diabetic Lewis rats 5-8 weeks, TBZ 1.6 μg/gm i.v.
  blood glucose excursion / area under the curve in IPGTT, diabetic rats: smaller area under the curve; also recorded: reduces the blood glucose excursion during IPGTT in diabetic Lewis rats
Diabetic Lewis rats; around sixty minutes following i.v. injection of TBZ
  blood glucose levels before i.p. glucose challenge, diabetic rats: returned to control or near normal levels

## COc1ccc(C2CC(=O)CC(=O)N2)cc1OC (stereo not shown) [HG-5]
Lewis rats [2]
  hypoglycemic activity in IPGTT compared with TBZ / HG-3: loss of the improved activity

## COc1ccc(-c2cc(OCC(C)C)cc(=O)[nH]2)cc1OC [compound 17]
Lewis rats [2]
  hypoglycemic activity in IPGTT compared with TBZ / HG-3: loss of the improved activity

## CC(C)(C)NCC(O)c1ccc(O)c(CO)c1 (stereo not shown) [butamol]
Lewis rats [1]
  AUC Blood Glucose IPGTT: smaller area under the curve
  blood glucose levels around sixty minutes following glucose challenge: returned to control or near normal levels
Lewis rats [1]; [6]
  blood glucose excursion during IPGTT: did not reduce the blood glucose excursion; also recorded: does not reduce the blood glucose excursion

## COC1=CC(=O)OC(c2ccc(OC)c(OC)c2)C1 (stereo not shown) [HG-9]
Lewis rats [2]
  hypoglycemic activity in IPGTT compared with TBZ / HG-3: loss of the improved activity

Reference: US9260391B2, “Hypoglycemic dihydropyridones” (The Trustees of Columbia University in the City of New York, priority 2008, dated 2016)
